This data set is described as follows: Human HepG2 cell viability assay in 384 well format. The data set is classed as toxicity, cell-based. Also on record: dose 125 nL, time 70.5 hour; concentration not given beside the values. The conditions noted are these: HepG2 cells, read-out: Inhibition.

For `COc1ccc(NC(=O)Cn2ccc3c(=O)n(C)ccc32)cc1OC`, the cytotoxicity at 70.5 h was -3.38%.

For the molecule `COCCNC(=O)Cn1ccc2sc(C)cc2c1=O`, the cytotoxicity at 70.5 h is -5.23%.

With `CNC(=O)c1ccccc1-c1ccc(S(C)(=O)=O)cc1`, the cytotoxicity at 70.5 h was -4.9%.

As for `Cc1ccc(Oc2ncccc2C(=O)N(C)CC2OCCO2)c(C)c1`, the cytotoxicity at 70.5 h was -4.31%.

For `COc1ccc(C(=O)Nc2ccccc2C(C)C)c(OC)n1`, the cytotoxicity at 70.5 h turned out to be 5.28%.

With `O=C(NCCC1=CCCCC1)c1ccc(-n2cccc2)nc1`, the cytotoxicity at 70.5 h is -3.84%.

Take `CC1CN(c2ncccc2C(=O)N[C@@H]2CCCc3ccccc32)CCN1` (stereo partly drawn): the cytotoxicity at 70.5 h was -4.37%.

As to `CCOCCNC(=O)c1cccnc1N1CCCC1c1ccccn1` (stereo not drawn), the cytotoxicity at 70.5 h is -8.32%.

For `CCCNc1ccc(C(=O)NCCc2ccc(Cl)cc2)cn1`, the cytotoxicity at 70.5 h was -5.63%.

Take `O=C(NC[C@@H]1CCCO1)c1cc(Br)cnc1N1CCCCC1`: the cytotoxicity at 70.5 h was -1.68%.

On to `COc1ccc2c(c1)C(=O)CC1(CCN(Cc3ccc(F)cc3)CC1)O2`, for which the cytotoxicity at 70.5 h came out at 21.7%.

Turning to `COc1ccc2c(c1)OC1(CCN(Cc3ccccc3C)CC1)CC2=O`, the cytotoxicity at 70.5 h is -3.9%.

Consider `COc1ccc2c(c1)OC1(CCN(Cc3cccc(C)c3)CC1)CC2=O`, for which the cytotoxicity at 70.5 h was -2.19%.

Take `O=C(NC[C@@H]1CCCO1)c1cccnc1N1CCCC1c1ccccc1` (stereo partly drawn): the cytotoxicity at 70.5 h was -5.49%.

Take `CN(CCc1ccccc1)C(=O)c1cccnc1OCC(F)(F)F`: the cytotoxicity at 70.5 h was determined as 20%.

In the case of `O=C(c1cccnc1SCc1ccccc1)N1CC[C@@H](O)C1`, the cytotoxicity at 70.5 h was 29.6%.

On to `CCOCCNC(=O)c1cccnc1Sc1cc(OC)ccc1OC`, for which the cytotoxicity at 70.5 h came to 15.5%.

Turning to `COc1ccc(OC)c(Sc2ncccc2C(=O)NCC2CC2)c1`, the cytotoxicity at 70.5 h came to 24.9%.

As for `COCCNC(=O)c1cccnc1Sc1cc(OC)ccc1OC`, the cytotoxicity at 70.5 h amounted to 11.2%.

In the case of `CCCSc1ncccc1C(=O)NCc1ccc(N(C)C)cc1`, the cytotoxicity at 70.5 h came to 18.5%.

In the case of `CC1CCN(c2ncc(C#N)c(N)n2)CC1`, the cytotoxicity at 70.5 h is -3.5%.

Turning to `Cc1ccc(-c2nnc(CN3CCN(c4ccccn4)CC3)o2)cc1`, the cytotoxicity at 70.5 h stood at 3.67%.

Regarding `CC(=O)N1N=C(c2ccccc2)OC1C(=O)NCCOc1ccccc1` (stereo not drawn), the cytotoxicity at 70.5 h was -3.08%.

With `CC(=O)N1N=C(Cc2ccccc2)OC1C(=O)NCC(C)C` (stereo not drawn), the cytotoxicity at 70.5 h was -1.89%.

Consider `Cc1cc(Cl)ccc1-n1ncc(C(=O)NCC2COC(C)(C)O2)c1N` (stereo not drawn), for which the cytotoxicity at 70.5 h turned out to be 23.9%.

As for `CCOC(=O)C1CCN(C(=O)c2cnn(-c3ccccc3F)c2N)CC1`, the cytotoxicity at 70.5 h was -4.94%.

Turning to `Cc1ccc(C)c(-n2ncc(C(=O)N(C)CCc3ccccn3)c2N)c1`, the cytotoxicity at 70.5 h came to 4.61%.

For the molecule `CN1CCC(N(C)C(=O)c2cnn(-c3cc(F)ccc3F)c2N)CC1`, the cytotoxicity at 70.5 h was -0.483%.

On to `CCOC(=O)CNC(=O)C1OC(c2ccccc2)=NN1C(C)=O` (stereo not drawn), for which the cytotoxicity at 70.5 h was -6.97%.

In the case of `COc1ccc(NC(=O)C2OC(c3cccs3)=NN2C(C)=O)cc1OC` (stereo not drawn), the cytotoxicity at 70.5 h is 2.61%.

Turning to `CC(=O)N1N=C(c2ccco2)OC1C(=O)N(CC(C)C)CC(C)C` (stereo not drawn), the cytotoxicity at 70.5 h is -1.96%.

With `CCN(CC)CCNC(=O)CCc1c(C)nn(-c2ccc(Cl)cc2)c1C`, the cytotoxicity at 70.5 h was -7.15%.

Turning to `Cc1nc(-c2ccoc2)n(CC(=O)N(C)CC(C)C)c1C`, the cytotoxicity at 70.5 h was -4.77%.

As to `Cc1cc(CN(C)CCC(O)c2ccccc2)no1` (stereo not drawn), the cytotoxicity at 70.5 h turned out to be 1.83%.

With `CN(C)c1cc(N2CCN(c3ccccn3)CC2)ncn1`, the cytotoxicity at 70.5 h is 22.1%.

Consider `CC(=O)c1cc2ncc(C(=O)NC3CC3)cc2[nH]1`, for which the cytotoxicity at 70.5 h worked out at 16%.

Consider `CC(=O)c1cc2ncc(C(=O)NC3CCCC3)cc2[nH]1`, for which the cytotoxicity at 70.5 h was -3.81%.

For the molecule `CCCNC(=O)c1cn(C(C)(C)C)c2ncccc12`, the cytotoxicity at 70.5 h was -1.86%.

In the case of `CCOCCCNC(=O)c1cn(C(C)(C)C)c2ncccc12`, the cytotoxicity at 70.5 h was found to be 20.9%.

`CN(C)C(=O)c1cc(-c2ccncc2)[nH]n1`: the cytotoxicity at 70.5 h is -4.19%.

Take `CNC(=O)c1cc(-c2ccccc2OC)[nH]n1`: the cytotoxicity at 70.5 h was -5.34%.

In the case of `CCN(CC)CCNC(=O)CCc1c(C)nn(-c2ccccc2Cl)c1C`, the cytotoxicity at 70.5 h was found to be 16.4%.

Take `CC(C)(Oc1ccc(C(N)=O)cc1)C(=O)N(CCC#N)C1CC1`: the cytotoxicity at 70.5 h was -1.36%.

Consider `CN(CCC#N)C(=O)C(C)(C)Oc1ccc(C(N)=O)cc1`, for which the cytotoxicity at 70.5 h is 20.4%.

For `COc1ccc2[nH]c(C(=O)NCC3(N)CCCC3)cc2c1`, the cytotoxicity at 70.5 h was -7.33%.

As for `COc1ccc2c(c1)CN(CC1CC1)C(=O)CCN2CC(C)(C)O`, the cytotoxicity at 70.5 h worked out at 0.185%.

As for `CC(C)(C)CN1Cc2cc3c(cc2NCCC1=O)OCO3`, the cytotoxicity at 70.5 h was determined as 23.7%.

As for `CCN1Cc2cc(OC)ccc2N(CC(C)(C)O)CCC1=O`, the cytotoxicity at 70.5 h is -13%.

In the case of `CC1(C)CNC(=O)CN(C(=O)COc2ccccc2)C1`, the cytotoxicity at 70.5 h was -14.2%.

On to `CCN1CC(COc2ccccc2)Oc2ncccc2S1(=O)=O` (stereo not drawn), for which the cytotoxicity at 70.5 h is -3.66%.

Turning to `CCN1CC(COc2ccc(OC)cc2)Oc2ccncc2S1(=O)=O` (stereo not drawn), the cytotoxicity at 70.5 h was -0.442%.

On to `CCN1CC(COC(C)(C)C)Oc2ccncc2S1(=O)=O` (stereo not drawn), for which the cytotoxicity at 70.5 h was -4.84%.

As for `CC(C)(C)OCC1CN(CC2CC2)S(=O)(=O)c2cnccc2O1` (stereo not drawn), the cytotoxicity at 70.5 h was -4.79%.

Take `CCOC(=O)[C@H]1[C@@H](O)C(=O)N(C)C12CCN(C(=O)OC)CC2`: the cytotoxicity at 70.5 h is 7.43%.

Turning to `CCOC(=O)[C@@H]1[C@@H](O)C(=O)N(C)C12CCN(C(=O)OC)CC2`, the cytotoxicity at 70.5 h was -10.2%.

`O=C1c2cccnc2OC(CN2CCOCC2)CN1CC1CC1` (stereo not drawn): the cytotoxicity at 70.5 h was -1.18%.

As to `O=C1c2cccnc2OC(CN2CCOCC2)CN1C1CCC1` (stereo not drawn), the cytotoxicity at 70.5 h is -4.26%.

On to `COCCN1C[C@H]2CCN(C(C)=O)CC[C@H]2S1(=O)=O`, for which the cytotoxicity at 70.5 h amounted to 0.94%.

With `Cc1nnc([C@@H]2C[C@H]3CN(C(=O)c4sccc4C)C[C@H]3O2)[nH]1`, the cytotoxicity at 70.5 h is -8.24%.

Take `CC(C)CN1C[C@H]2CCN(C(=O)C3CCCO3)CC[C@H]2S1(=O)=O` (stereo partly drawn): the cytotoxicity at 70.5 h was -8.39%.

In the case of `CCN1C[C@H]2CCN(C(=O)C3CCCO3)CC[C@H]2S1(=O)=O` (stereo partly drawn), the cytotoxicity at 70.5 h is -7.09%.

For the molecule `CNC(=O)[C@H]1CC[C@@H]2[C@@H](CCN2C(=O)N(C)C)O1`, the cytotoxicity at 70.5 h is -5.62%.

On to `CN(C)CCN1CCc2ncc(CN(C)Cc3ccco3)n2CC1`, for which the cytotoxicity at 70.5 h was determined as 30%.

Take `Cn1cc(-c2nc(C3CCN(S(C)(=O)=O)CC3)cc3c2ncn3C)cn1`: the cytotoxicity at 70.5 h amounted to 23.5%.

For the molecule `CCN1CC2(CC1=O)CN(C(C)=O)CCN(S(=O)(=O)CC)C2` (stereo not drawn), the cytotoxicity at 70.5 h is -2.5%.

As for `Cn1cc(-c2nc(C3CCN(CC4CC4)CC3)cc3c2ncn3C)cn1`, the cytotoxicity at 70.5 h is -1.1%.

In the case of `CN(C)c1ccc2c(c1)CN(C(=O)c1ccnnc1)C2c1cnco1` (stereo not drawn), the cytotoxicity at 70.5 h is -13.8%.

Consider `CCOCc1ccc(CNc2cncc(-n3cccn3)n2)cc1`, for which the cytotoxicity at 70.5 h came to 8.54%.

As to `COCc1ccc(CNc2cncc(-n3cccn3)n2)cc1`, the cytotoxicity at 70.5 h was -9.14%.

Take `Cc1cc(C(=O)N2CCCC2)ccc1NCC(=O)N1CCCCC1C` (stereo not drawn): the cytotoxicity at 70.5 h was 7.01%.

Consider `NS(=O)(=O)Cc1ccc(CNc2cncc(-n3cccn3)n2)cc1`, for which the cytotoxicity at 70.5 h was -14%.

As to `O=C(CNc1cc(F)ccc1OCC1CCCO1)N1CCOCC1` (stereo not drawn), the cytotoxicity at 70.5 h is -0.218%.

Regarding `Cc1cc(C(=O)N2CCCCC2C)ccc1NC(=O)N1CCOCC1` (stereo not drawn), the cytotoxicity at 70.5 h is -6.59%.

As for `O=C(Nc1cc(F)ccc1OCC1CCCO1)NC1CC1` (stereo not drawn), the cytotoxicity at 70.5 h was -8.4%.

On to `c1ccc(CCCN2CCN(c3ccc4nncn4n3)CC2)cc1`, for which the cytotoxicity at 70.5 h turned out to be 0.863%.

On to `CCNC(=O)N(C)C(c1ccccc1)c1ccccn1` (stereo not drawn), for which the cytotoxicity at 70.5 h was -4.29%.

Turning to `Cn1ccc(C(=O)Nc2cc(F)ccc2OCC2CCCO2)cc1=O` (stereo not drawn), the cytotoxicity at 70.5 h is -8.3%.

Turning to `O=C(Nc1cc(F)ccc1OCC1CCCO1)N1CCSCC1` (stereo not drawn), the cytotoxicity at 70.5 h came to 0.0557%.

Turning to `NC(=O)c1cc(C2CCCN(C(=O)CCc3ccccn3)C2)n[nH]1` (stereo not drawn), the cytotoxicity at 70.5 h was -3.73%.

As for `CCOCC(O)CN1CCN(C(=O)c2cc(C)ccc2OC)CC1` (stereo not drawn), the cytotoxicity at 70.5 h is -5.99%.

In the case of `NCCc1cn(Cc2ccccn2)c2ccccc12`, the cytotoxicity at 70.5 h is -5.82%.

On to `NCCC(=O)Nc1ccc(-c2ccccc2)cc1`, for which the cytotoxicity at 70.5 h is -5.02%.

As for `NC(=O)N1CCc2cc(C(=O)O)c(-c3ccsc3)nc2CC1`, the cytotoxicity at 70.5 h was -6.4%.

On to `O=S(=O)(C1CC1)N1Cc2[nH]nc(COCC3CC3)c2C1`, for which the cytotoxicity at 70.5 h is -6.81%.

For `CN(Cc1cccs1)C1CCC[C@@H]2CN(C(N)=O)C[C@H]12` (stereo partly drawn), the cytotoxicity at 70.5 h was -10.5%.

As to `CCN1CCC2(CC1)C(=O)N(c1ccc(C)nc1)CCN2CC(C)C`, the cytotoxicity at 70.5 h was -3%.

Consider `O=C(O)c1c(-c2ccoc2)ncc2c1CCN(C1CCOC1)C2` (stereo not drawn), for which the cytotoxicity at 70.5 h is -2.3%.

Take `Cc1cc(CN2C[C@@H](C)[C@@]3(CCN(CC(=O)N(C)C)C3=O)C2)oc1C`: the cytotoxicity at 70.5 h is -4.41%.

As for `Cn1cc(CN2C[C@H]3CCC[C@@H](CNc4nccn4C)[C@H]3C2)cn1`, the cytotoxicity at 70.5 h was -3.76%.

Turning to `Cn1ccnc1NC[C@@H]1CCC[C@@H]2CN(CC3CC3)C[C@@H]21`, the cytotoxicity at 70.5 h is -9.55%.

Consider `O=C(O)c1cc2c(nc1-c1ccsc1)CCN(C(=O)C1CC1)CC2`, for which the cytotoxicity at 70.5 h was -7.32%.

As for `CC1CCCCN1C(=O)c1nc2c(n1C(C)C)CCN(C)C2` (stereo not drawn), the cytotoxicity at 70.5 h was -14%.

With `CN(Cc1ccco1)Cc1cnc2n1CCN(S(C)(=O)=O)CC2`, the cytotoxicity at 70.5 h was found to be 26.4%.

As for `CCc1cnc(N2CC[C@H]3[C@@H]2CCC(=O)N3CC2CCOCC2)nc1`, the cytotoxicity at 70.5 h came out at 20.9%.

`COCCN1CCC2(CCCN(C(=O)c3cncn3C)C2)CC1`: the cytotoxicity at 70.5 h was -3.6%.

With `CN1CCC2(CCN(c3ncc(F)cn3)CC2)C1=O`, the cytotoxicity at 70.5 h was -1.11%.

As to `CN1Cc2[nH]nc(COCC3CC3)c2C1`, the cytotoxicity at 70.5 h was -11.3%.

In the case of `Cc1ccc(CN2CC[C@@H](NS(C)(=O)=O)[C@@H]2Cc2ccncc2)o1`, the cytotoxicity at 70.5 h is -10.7%.

The record behind these values is ChEMBL document CHEMBL3507680, “University of Dundee, Gates Library screen for HepG2 cell viability”.
